Results from patent publication US9512107B2, “Therapeutically active compositions and their methods of use” (Agios Pharmaceuticals, Inc., priority 2012, dated 2016).
Changes are numbered by the printed parent chain.

Legend:
[1] = system: U87MG pLVX-IDH2 R140Q-neo cells; assay: U87MG pLVX-IDH2 R140Q-neo cell based assay, 2-HG in media by LC-MS at 48 hours; details: Homo sapiens, U-87 MG
Method in brief: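 U87MG cells stably expressing IDH2 R140Q were seeded overnight, then exposed to compound at 0.2% final DMSO at 37 °C, 5% CO2. 2-HG in the medium was quantified by LC-MS at 48 h. Growth inhibition was read by CellTiter-Glo luminescence at 72 h.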

[2] = target: T1, IDH2 R172K (Homo sapiens, UniProt P48735, R172K); assay: IDH2 R172K enzymatic assay (NADPH cofactor depletion, diaphorase/resazurin readout); format: biochemical; details: read-out: Enz R172K
T1 sequence (P48735 40-452 R172K): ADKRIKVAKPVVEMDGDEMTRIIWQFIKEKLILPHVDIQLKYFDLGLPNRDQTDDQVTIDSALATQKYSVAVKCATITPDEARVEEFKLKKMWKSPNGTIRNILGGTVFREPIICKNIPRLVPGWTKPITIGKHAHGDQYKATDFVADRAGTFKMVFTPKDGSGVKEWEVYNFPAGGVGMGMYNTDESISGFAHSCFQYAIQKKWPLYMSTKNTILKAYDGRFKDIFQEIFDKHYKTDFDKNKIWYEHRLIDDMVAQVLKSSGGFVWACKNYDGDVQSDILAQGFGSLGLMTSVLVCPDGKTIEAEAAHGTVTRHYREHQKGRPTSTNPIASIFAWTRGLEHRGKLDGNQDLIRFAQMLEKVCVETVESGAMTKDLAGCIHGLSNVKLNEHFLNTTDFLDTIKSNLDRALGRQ
Method in brief: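 Compound was preincubated with IDH2 R172K for 1 h at room temperature, then the reaction was started with substrate mix containing 50 μM NADPH and 6.3 mM α-KG. After another 1 h at room temperature, stop mix with diaphorase and resazurin consumed the remaining NADPH, and resorufin fluorescence was read.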

[3] = target: T2, IDH2 R140Q (Homo sapiens, UniProt P48735, R140Q); assay: IDH2 R140Q enzymatic assay (cofactor depletion, similar format); format: biochemical; details: read-out: Enz R140Q
T2 sequence (P48735 40-452 R140Q): T1 sequence (P48735 40-452 R172K) with R101Q, K133R

With `CC(C)Nc1nc(Nc2ccnc(C3(C#N)CC3)c2)nc(-c2cccc(C(F)(F)F)n2)n1` [Compound 669, 1-{4-[4-Isopropylamino-6-(6-trifluoromethyl-pyridin-2-yl)-[1,3,5]triazin-2-ylamino]-pyridin-2-yl}-cyclopropanecarbonitrile] the IC50 [1] was under 100 nM, the IC50 [2] was under 100 nM and the IC50 [3] was 100 to 1000 nM.
Compound `CC(C)(O)CNc1nc(Nc2cnc(F)c(Cl)c2)nc(-c2cccc(C(F)(F)F)n2)n1` [Compound 670, 1-[4-(5-Chloro-6-fluoro-pyridin-3-ylamino)-6-(6-trifluoromethyl-pyridin-2-yl)-[1,3,5]triazin-2-ylamino]-2-methyl-propan-2-ol] has an IC50 [1] of under 100 nM, an IC50 [2] of 100 to 1000 nM and an IC50 [3] of 100 to 1000 nM.
In the case of `CC(C)Nc1nc(Nc2ccnc(C(C)(C)C#N)c2)nc(-c2cccc(C(F)(F)F)n2)n1` [Compound 671, 2-{4-[4-Isopropylamino-6-(6-trifluoromethyl-pyridin-2-yl)-[1,3,5]triazin-2-ylamino]-pyridin-2-yl}-2-methyl-propionitrile], the IC50 [1] is reported as under 100 nM, the IC50 [2] is reported as under 100 nM and the IC50 [3] is reported as 100 to 1000 nM.
With `CC(C)Nc1nc(Nc2ccnc(CC#N)c2)nc(-c2cccc(C(F)(F)F)n2)n1` [Compound 672, {4-[4-Isopropylamino-6-(6-trifluoromethyl-pyridin-2-yl)-[1,3,5]triazin-2-ylamino]-pyridin-2-yl}-acetonitrile] the IC50 [1] was under 100 nM, the IC50 [2] was 100 to 1000 nM and the IC50 [3] was 100 to 1000 nM.
`CC(C)Nc1nc(Nc2ccnc(C(F)F)c2)nc(-c2cccc(C(F)F)n2)n1` [Compound 673, 6-(6-Difluoromethyl-pyridin-2-yl)-N-(2-difluoromethyl-pyridin-4-yl)-N′-isopropyl-[1,3,5]triazine-2,4-diamine] showed an IC50 [1] of under 100 nM, an IC50 [2] of under 100 nM and an IC50 [3] of 100 to 1000 nM.
For `CC(C)Nc1nc(Nc2ccnc(C3(O)CC3)c2)nc(-c2cccc(C(F)(F)F)n2)n1` [Compound 674, 1-{4-[4-Isopropylamino-6-(6-trifluoromethyl-pyridin-2-yl)-[1,3,5]triazin-2-ylamino]-pyridin-2-yl}-cyclopropanol], the IC50 [1] was under 100 nM, the IC50 [2] was 100 to 1000 nM and the IC50 [3] was 100 to 1000 nM.
`CC(C)Nc1nc(Nc2ccnc(C(F)F)c2)nc(-c2cccc(C(C)(F)F)n2)n1` [Compound 675, 6-[6-(1,1-Difluoro-ethyl)-pyridin-2-yl]-N-(2-difluoromethyl-pyridin-4-yl)-N′-isopropyl-[1,3,5]triazine-2,4-diamine] gave an IC50 [1] of under 100 nM, an IC50 [2] of under 100 nM and an IC50 [3] of 100 to 1000 nM.
`CC(C)Nc1nc(Nc2ccnc(CF)c2)nc(-c2cccc(C(F)(F)F)n2)n1` [Compound 676, N-(2-Fluoromethyl-pyridin-4-yl)-N′-isopropyl-6-(6-trifluoromethyl-pyridin-2-yl)-[1,3,5]triazine-2,4-diamine] was tested, and the IC50 [1] was under 100 nM, the IC50 [2] was under 100 nM and the IC50 [3] was 100 to 1000 nM.
For `CC(C)Nc1nc(Nc2ccnc(C(C)(C)C#N)c2)nc(-c2cccc(C(C)(F)F)n2)n1` [Compound 677, 2-(4-{4-[6-(1,1-Difluoro-ethyl)-pyridin-2-yl]-6-isopropylamino-[1,3,5]triazin-2-ylamino}-pyridin-2-yl)-2-methyl-propionitrile], the IC50 [1] was under 100 nM, the IC50 [2] was under 100 nM and the IC50 [3] was 100 to 1000 nM.
`CC(C)(O)CNc1nc(Nc2ccnc(C(C)(C)C#N)c2)nc(-c2cccc(C(F)(F)F)n2)n1` [Compound 678, 2-{4-[4-(2-Hydroxy-2-methyl-propylamino)-6-(6-trifluoromethyl-pyridin-2-yl)-[1,3,5]triazin-2-ylamino]-pyridin-2-yl}-2-methyl-propionitrile] was tested, and the IC50 [1] was under 100 nM, the IC50 [2] was 100 to 1000 nM and the IC50 [3] was 1000 to 10000 nM.
Work on `COC(=O)Nc1cccc(-c2nc(Nc3ccnc(C(F)(F)F)c3)nc(NC(C)C)n2)n1` [Compound 679, Methyl(6-(4-(isopropylamino)-6-((2-(trifluoromethyl)pyridin-4-yl)amino)-1,3,5-triazin-2-yl)pyridin-2-yl)carbamate] yielded an IC50 [1] of 100 to 1000 nM, an IC50 [2] of over 10000 nM and an IC50 [3] of 100 to 1000 nM.
With `CC(C)Nc1nc(Nc2ccnc(C(F)(F)F)c2)nc(-c2cccc(N)n2)n1` [Compound 687, 6-(6-aminopyridin-2-yl)-N2-isopropyl-N4-(2-(trifluoromethyl)pyridin-4-yl)-1,3,5-triazine-2,4-diamine] the IC50 [1] was under 100 nM, the IC50 [2] was under 100 nM and the IC50 [3] was 100 to 1000 nM.
`CC(C)(C)CNc1nc(Nc2ccnc(C(F)(F)F)c2)nc(-c2cccc(N)n2)n1` [Compound 689, 6-(6-aminopyridin-2-yl)-N2-neopentyl-N4-(2-(trifluoromethyl)pyridin-4-yl)-1,3,5-triazine-2,4-diamine] gave an IC50 [1] of under 100 nM, an IC50 [2] of under 100 nM and an IC50 [3] of 100 to 1000 nM.
Work on `CC(C)CNc1nc(Nc2ccnc(C(F)(F)F)c2)nc(-c2cccc(N)n2)n1` [Compound 690, 6-(6-aminopyridin-2-yl)-N2-isobutyl-N4-(2-(trifluoromethyl)pyridin-4-yl)-1,3,5-triazine-2,4-diamine] yielded an IC50 [1] of under 100 nM, an IC50 [2] of under 100 nM and an IC50 [3] of 100 to 1000 nM.
`CC(C)(O)CNc1nc(Nc2cc(F)cc(F)c2)nc(-c2cccc(N)n2)n1` [Compound 691, 1-(4-(6-aminopyridin-2-yl)-6-(3,5-difluorophenylamino)-1,3,5-triazin-2-ylamino)-2-methylpropan-2-ol] gave an IC50 [1] of under 100 nM, an IC50 [2] of 100 to 1000 nM and an IC50 [3] of 100 to 1000 nM.
For `CC1(Nc2nc(Nc3ccnc(C(F)(F)F)c3)nc(-c3cccc(N)n3)n2)CC1` [Compound 692, 6-(6-aminopyridin-2-yl)-N2-(1-methylcyclopropyl)-N4-(2-(trifluoromethyl)pyridin-4-yl)-1,3,5-triazine-2,4-diamine], the IC50 [1] was under 100 nM, the IC50 [2] was under 100 nM and the IC50 [3] was 100 to 1000 nM.
With `CC1(Nc2nc(Nc3cc(F)cc(F)c3)nc(-c3cccc(N)n3)n2)CC1` [Compound 693, 6-(6-aminopyridin-2-yl)-N2-(3,5-difluorophenyl)-N4-(1-methylcyclopropyl)-1,3,5-triazine-2,4-diamine] the IC50 [1] was under 100 nM, the IC50 [2] was under 100 nM and the IC50 [3] was 100 to 1000 nM.
`CC(Nc1nc(Nc2ccnc(C(F)(F)F)c2)nc(-c2cccc(N)n2)n1)C(F)(F)F` (stereo not drawn) [Compound 694, 6-(6-aminopyridin-2-yl)-N2-(2-(trifluoromethyl)pyridin-4-yl)-N4-(1,1,1-trifluoropropan-2-yl)-1,3,5-triazine-2,4-diamine] showed an IC50 [1] of under 100 nM, an IC50 [2] of under 100 nM and an IC50 [3] of 100 to 1000 nM.
Work on `CC(C)(C)Nc1nc(Nc2ccnc(C(F)(F)F)c2)nc(-c2cccc(N)n2)n1` [Compound 695, 6-(6-aminopyridin-2-yl)-N2-tert-butyl-N4-(2-(trifluoromethyl)pyridin-4-yl)-1,3,5-triazine-2,4-diamine] yielded an IC50 [1] of under 100 nM, an IC50 [2] of under 100 nM and an IC50 [3] of 100 to 1000 nM.
`CC(C)Nc1nc(Nc2ccnc(C(C)(F)F)c2)nc(-c2cccc(N)n2)n1` [Compound 696, 6-(6-aminopyridin-2-yl)-N2-(2-(1,1-difluoroethyl)pyridin-4-yl)-N4-isopropyl-1,3,5-triazine-2,4-diamine] showed an IC50 [1] of under 100 nM, an IC50 [2] of 100 to 1000 nM and an IC50 [3] of 100 to 1000 nM.
In the case of `CC(=O)Nc1cccc(-c2nc(Nc3ccnc(C(F)(F)F)c3)nc(NC(C)C)n2)n1` [Compound 697, N-(6-(4-(isopropylamino)-6-(2-(trifluoromethyl)pyridin-4-ylamino)-1,3,5-triazin-2-yl)pyridin-2-yl)acetamide], the IC50 [1] is reported as 100 to 1000 nM, the IC50 [2] is reported as 1000 to 10000 nM and the IC50 [3] is reported as 100 to 1000 nM.
`CC(C)(C)Nc1nc(Nc2cc(F)cc(F)c2)nc(-c2cccc(N)n2)n1` [Compound 698, 6-(6-aminopyridin-2-yl)-N2-(tert-butyl)-N4-(3,5-difluorophenyl)-1,3,5-triazine-2,4-diamine] was tested, and the IC50 [1] was under 100 nM, the IC50 [2] was under 100 nM and the IC50 [3] was 100 to 1000 nM.
`Nc1cccc(-c2nc(NCC3CC3)nc(Nc3cc(F)cc(F)c3)n2)n1` [Compound 699, 6-(6-aminopyridin-2-yl)-N2-(cyclopropylmethyl)-N4-(3,5-difluorophenyl)-1,3,5-triazine-2,4-diamine] gave an IC50 [1] of under 100 nM, an IC50 [2] of under 100 nM and an IC50 [3] of 100 to 1000 nM.
